Entries after “also recorded” stand apart in the source; their conditions may differ.
Legend:
PA2652-LBD [1] = target: T1, PA2652-LBD (Pseudomonas aeruginosa, UniProt Q9I0I6); assay type: binding, Pseudomonas aeruginosa PAO1; details: for Tm increases: DSF screening as described in text, 2 °C threshold for significant hits; for Tm Shift: Biolog arrays PM1, PM2A, PM3b, PM4a, PM5, relative to ligand-free protein Tm 45.5 °C
T1 construct: The DNA fragment encoding the LBD of PA2652 (Lys^34–Thr^205) was amplified; His-tag (vector-encoded by pET28b(+) via NdeI site); made in house; host or cells: Escherichia coli BL21 (DE3)
From the text: To identify ligands that may bind to the LBD of PA2652, we conducted Differential Scanning Fluorimetry (DSF) based high throughput ligand screening assays as described previously[37],[38]. DSF analyses permit the determination of melting temperature (Tm) values, which corresponds to the temperature at which half the protein is in its native conformation whereas the remaining half has undergone thermal unfolding. Since ligand binding typically enhances the thermal stability of proteins, increases in the Tm in the presence of ligands may be indicative of specific binding. We screened 450 different compounds available in five different ligand arrays from Biolog (Supplementary Fig. S3). The screened collection included different carbon and nitrogen sources, phosphorous and sulfurous compounds as well as different nutrient supplements.
Thermal shift assays were performed on a MyIQ2 Real-Time PCR instrument (BioRad). Ligands from the different compound arrays (Biolog, Hayward, CA, USA; see Supplementary Fig. S3) were dissolved in 50 μl of MilliQ water, which, according to the manufacturer, corresponds to a concentration of 10–20 mM. Screening was performed using 96 wells plates. Each well contained 20 μM of protein dialyzed into TNG buffer (20 mM Tris/HCl, 150 mM NaCl, 10% (v/v) glycerol, pH 6.7), 2.5 μl of the resuspended compounds and SYPRO Orange (Life Technologies) at 5× concentration. In a single well (ligand free protein) the compound was substituted by water. Samples were heated from 23 °C to 85 °C at a scan rate of 1 °C/min. The protein unfolding curves were obtained by following the changes in SYPRO Orange fluorescence. Melting temperatures were determined using the first derivative values from the raw fluorescence data.

PA2652-LBD [2] = target: T1, PA2652-LBD; assay: biochemical; assay type: binding, Pseudomonas aeruginosa PAO1; details: for Binding in ITC: YES/NO
Description: To unambiguously determine ligand binding, we conducted Isothermal Titration Calorimetry (ITC)[40] binding studies with the purified protein.
Experiments were conducted on a VP-microcalorimeter (Microcal, Amherst, MA, USA) at 20 °C. PA2652-LBD was dialyzed overnight against TNG buffer, adjusted to a concentration of 20–35 μM and placed into the sample cell of the instrument. The protein was titrated by the injection of 9.6–14.4 μl aliquots of 1–20 mM ligand solutions that were prepared in TNG buffer (20 mM Tris/HCl, 150 mM NaCl, 10% (v/v) glycerol, pH 6.8) immediately before use. The mean enthalpies measured from the injection of ligands into buffer were subtracted from raw titration data prior to data analysis with the MicroCal version of ORIGIN. Data were fitted with the “One binding site model”.

[3] = test system: Pseudomonas aeruginosa PAO1 (wt and PA2652 mutant); assay: Growth experiments with ligands as sole carbon source; assay type: cell-based; details: M9 minimal medium, 10 mM carbon source
From the text: To evaluate the physiological relevance of the ligands identified, we first addressed the question of whether they could support bacterial growth as sole carbon source. To this end, we conducted growth experiments of the wild type (wt) strain and a mutant defective in PA2652 in minimal medium supplemented with the different ligands as sole carbon sources.
Bacterial strains used in this study are listed in Supplementary Table S3. Pseudomonas aeruginosa PAO1 and its derivative strains were routinely grown at 37 °C in Luria Broth (LB; 5 g yeast extract l^−1, 10 g Bacto tryptone l^−1 and 5 g NaCl l^−1) or M9 medium supplemented with 1 mM MgSO4, 6 mg l^−1 Fe-citrate, trace elements[81] and 15 mM glucose as carbon source. For growth experiments to assess the capacity of PA2652-LBD ligands to support growth a sole C-source, PAO1 cells were pre-cultured overnight in M9 medium supplemented with 10 mM glucose and washed twice with M9 medium salts, prior to the inoculation of M9 medium containing10 mM of the different carbon sources. When necessary, the pH of the medium was adjusted to 7.0 prior to inoculation. Bacterial growth over the time was monitored using Bioscreen Microbiological Growth Analyser (Oy Growth Curves Ab Ltd, Helsinki, Finland). Escherichia coli strains were grown at 37 °C in LB. Escherichia coli DH5α was used as a host for gene cloning. When appropriate, antibiotics were used at the following final concentrations (in µg ml^−1): kanamycin, 25 (E. coli strains) and 100 (Pseudomonas strains); tetracycline, 40.

[4] = test system: Pseudomonas aeruginosa PAO1; assay: Quantitative capillary chemotaxis assay, wild type; assay type: cell-based; details: for Role of PA2652 ligand (chemoattractant or antagonist): authors' classification from chemotaxis results; for Concentration of maximum chemotactic response / Chemotactic response: wt PAO1; for Chemotactic response: ligands at 10 µM to 100 mM
Description: Secondly, we assessed the capacity of the ligands identified to induce chemotaxis. To this end, we carried out quantitative capillary chemotaxis assays using the wt strain and PA2652 ligands at concentrations ranging from 10 µM to 100 mM.
Overnight cultures of P. aeruginosa strains were diluted to an OD660 of 0.05 in MS medium (30 mM Na2HPO4, 20 mM KH2PO4, 25 mM NH4NO3, 1 mM MgSO4) supplemented with 6 mg l^−1 Fe-citrate, trace elements[81] and 15 mM glucose as carbon source, and grown at 37 °C with orbital shaking (200 rpm). At an OD660 of 0.4 ([…]) cultures were centrifuged at 1,700 × g for 5 min and the resulting pellet was washed twice with chemotaxis buffer (50 mM potassium phosphate, […], 0.05% (v/v) glycerol, pH 7.0). Subsequently, the cells were resuspended in the same buffer, adjusted to an OD660 of 0.1 and 230 µl aliquots of the bacterial cultures were placed into 96-well plates. For the quantitative assays, one-microliter capillary tubes (Microcaps, Drummond Scientific, Ref. P1424) were heat-sealed at one end and filled with either the chemotaxis buffer (negative control) or chemotaxis buffer containing the chemoeffectors to test. The capillaries were immersed into the bacterial suspensions at its open end. After 30 min at room temperature, capillaries were removed from the bacterial suspensions, rinsed with sterile water and the content expelled into 1 ml of M9 medium salts. Serial dilutions were plated onto M9 minimal medium (containing the appropriate antibiotics) supplemented with 15 mM glucose as carbon source. The number of colony forming units was determined after overnight incubation. In all cases, data were corrected with the number of cells that swam into buffer containing capillaries.

[5] = test system: Pseudomonas aeruginosa PAO1; assay: Capillary chemotaxis assay in presence of antagonists; assay type: cell-based; details: for Effect of antagonist on chemotaxis toward L-alanine: 1 mM L-alanine, 20 or 40 mM antagonist; for Effect of antagonist on chemotaxis toward L-malic acid: 1 mM L-malic acid, 10, 20 and 40 mM antagonist in suspension and capillary
Description: To this end we conducted chemotaxis assays toward L-malic acid in the absence or presence of 10, 20 and 40 mM of citraconic and D,L-methylsuccinic acids (that were added to both, the bacterial suspension and the chemoattractant solution). […] To verify whether the presence of antagonists may have a global inhibitory effect on the chemotactic properties of P. aeruginosa we performed assays toward L-alanine, a chemoattractant recognized by the receptors PctA and PctB[15], in the presence antagonists.
To determine the effect of antagonists in the chemotactic properties of PAO1, the assay was performed as previously described with two minor modifications: (i) Capillary tubes were filled with chemotaxis buffer containing 1 mM of the chemoattractants (L-malic acid or L-alanine) and 10–40 mM of the antagonists (methylsuccinic or citraconic acids); (ii) Bacterial cultures were washed with chemotaxis buffer and cells were finally resuspended in the same buffer but containing equimolar concentrations of methylsuccinic/citraconic acids to those present in the capillary tubes.

[6] = target: the molecule itself; assay: AUC; sedimentation velocity, ligand-free protein at 5-20 uM, 48 000 rpm, 7 °C, 20 mM PIPES pH 7.0

## O=C(O)CC(Br)C(=O)O (racemic) [D,L-bromosuccinic acid]
PA2652-LBD [1]
  Tm increases: more than 2 °C
PA2652-LBD [2]
  Kd: 1240 ± 700 µM
  Binding in ITC: YES
[3]
  Ability to support bacterial growth as sole carbon source: poorly supported bacterial growth
[4]
  Role of PA2652 ligand (chemoattractant or antagonist): chemoattractants
  Concentration of maximum chemotactic response: 10 mM
  Chemotactic response: Significant responses; also recorded: significant chemotaxis

## CC(O)(CC(=O)O)C(=O)O (racemic) [D,L-citramalic acid]
PA2652-LBD [1]
  Tm increases: hits
PA2652-LBD [2]
  Kd: 61 ± 4 µM
  Binding in ITC: YES
[3]
  Ability to support bacterial growth as sole carbon source: able to efficiently sustain growth
[4]
  Concentration of maximum chemotactic response: 10 mM
  Chemotactic response: Significant responses; also recorded: significant chemotaxis

## CC(CC(=O)O)C(=O)O (racemic) [D,L-methylsuccinic acid]
PA2652-LBD [2]
  Kd: 224 ± 10 µM
  Binding to PA2652-LBD in ITC (in words): detection of binding
  Binding in ITC: YES
[3]
  Ability to support bacterial growth as sole carbon source: able to efficiently sustain growth
[4]
  Chemotactic response: Minor but statistically significant responses
[4]; listed as methylsuccinic acid
  Chemotactic response: very minor responses
[5]
  Effect of antagonist on chemotaxis toward L-alanine: did not significantly alter the chemotaxis
  Effect of antagonist on chemotaxis toward L-malic acid: reduced the chemotaxis toward L-malic acid

## C[C@@](O)(CC(=O)O)C(=O)O [D-citramalic acid]
PA2652-LBD [2]
  Binding to PA2652-LBD in ITC (in words): no binding was observed

## O=C(O)C[C@@H](O)C(=O)O [D-malic acid]
PA2652-LBD [1]
  Tm Shift: No significant shift
  Tm increases: did not cause significant increases
PA2652-LBD [2]
  Binding to PA2652-LBD in ITC (in words): did not show binding; also recorded: No binding

## C[C@H](CC(=O)O)C(=O)O [D-methylsuccinic acid]
PA2652-LBD [2]
  Binding to PA2652-LBD in ITC (in words): no binding was observed

## O=C(O)/C=C/C(=O)O [Fumaric acid]
PA2652-LBD [1]
  Tm Shift: No significant shift
PA2652-LBD [2]
  Binding to PA2652-LBD in ITC (in words): No binding
PA2652-LBD [2]; listed as fumaric acid
  Binding to PA2652-LBD in ITC (in words): absence of binding

## O=C(O)CCCC(=O)O [Glutaric acid]
PA2652-LBD [1]
  Tm Shift: No significant shift

## N[C@@H](CC(=O)O)C(=O)O [L-Aspartic acid]
PA2652-LBD [1]
  Tm Shift: No significant shift
PA2652-LBD [2]; listed as L-aminosuccinic acid
  Binding to PA2652-LBD in ITC (in words): No binding
PA2652-LBD [2]; listed as aminosuccinic acid
  Binding to PA2652-LBD in ITC (in words): absence of binding

## C[C@](O)(CC(=O)O)C(=O)O [L-citramalic acid]
[4]
  Role of PA2652 ligand (chemoattractant or antagonist): chemoattractants

## C[C@@H](CC(=O)O)C(=O)O [L-methylsuccinic acid]
[4]
  Role of PA2652 ligand (chemoattractant or antagonist): antagonists

## O=C(O)[C@H](O)[C@@H](O)C(=O)O [L-tartaric acid]
PA2652-LBD [1]
  Tm Shift: No significant shift
PA2652-LBD [2]
  Binding to PA2652-LBD in ITC (in words): No binding
PA2652-LBD [2]; listed as tartaric acid
  Binding to PA2652-LBD in ITC (in words): absence of binding

## C[C@@H](O)[C@H](N)C(=O)O [L-threonine]
PA2652-LBD [1]
  Tm Shift: No significant shift
PA2652-LBD [2]
  Binding to PA2652-LBD in ITC (in words): No binding

## O=C(O)CC(=O)C(=O)O [Oxaloacetic acid]
PA2652-LBD [1]
  Tm Shift: No significant shift
PA2652-LBD [2]
  Binding to PA2652-LBD in ITC (in words): No binding
PA2652-LBD [2]; listed as oxalacetic acid
  Binding to PA2652-LBD in ITC (in words): absence of binding

## O=C(O)CCC(=O)O [Succinic acid]
PA2652-LBD [1]
  Tm Shift: No significant shift
PA2652-LBD [2]
  Binding to PA2652-LBD in ITC (in words): No binding
PA2652-LBD [2]; listed as succinic acid
  Binding to PA2652-LBD in ITC (in words): absence of binding

## C/C(=C/C(=O)O)C(=O)O [citraconic acid]
PA2652-LBD [1]
  Tm increases: hits
PA2652-LBD [2]
  Kd: 210 ± 15 µM
  Binding in ITC: YES
[3]
  Ability to support bacterial growth as sole carbon source: could not be used as sole carbon source
[4]
  Role of PA2652 ligand (chemoattractant or antagonist): antagonists
  Chemotactic response: did not cause any chemotactic response and no
[5]
  Effect of antagonist on chemotaxis toward L-alanine: did not significantly alter the chemotaxis
  Effect of antagonist on chemotaxis toward L-malic acid: reduced the chemotaxis toward L-malic acid

B1: ligand binding domain (LBD) of the chemoreceptor PA2652 (domain or fragment, Pseudomonas aeruginosa PAO1, UniProt Q9I0I6 34-205, looked up)
chain: KKQADAEVKDTRERLLGDRRAELEHYVQIAMGSIQAEYDRSANGDLNARAEAIARLSKIKYGKDGYIFGYDSQVVRLFRGDSPVDVGKSFRDRRDPSGVYLNRELVEAGRNGSHYVTYTSPLPGNESVMVPKLSYTLYLPKWDMVIGSAINLDGVEAQLVEIKQDIDERIGT
notes: No removal of the tag is described; this is surmised; also called PA2652-LBD
[6]
  stoichiometry N: 2

— PMC5795001, “The activity of the C4-dicarboxylic acid chemoreceptor of Pseudomonas aeruginosa is controlled by chemoattractants and antagonists” (Scientific Reports, 2018)
